Key:
AVEFA = test: Pre-emergence herbicidal action against AVEFA; format: in vivo, Avena fatua; settings: Avena fatua, 504 h, pre-emergence
How it was run: (§1)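 Sandy loam pots, seeds covered with soil, then surface-treated with WP or EC formulations at 600–800 l/ha water plus 0.2% wetting agent. Greenhouse, 3 weeks. Percent damage vs untreated controls.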

ECHCG = test: Pre-emergence herbicidal action against ECHCG; format: in vivo, Echinochloa crus-galli; settings: Echinochloa crus-galli, 504 h
How it was run: as §1

VERPE [1] = test: Pre-emergence herbicidal action against VERPE; format: in vivo, Veronica persica; settings: Veronica persica, 504 h, dosage 320 g/ha
How it was run: as §1

VIOTR [2] = test: Pre-emergence herbicidal action against VIOTR; format: in vivo, Viola tricolor; settings: Viola tricolor, 504 h
How it was run: as §1

MATIN = test: Pre-emergence herbicidal action against MATIN; format: in vivo, Matricaria inodora; settings: Tripleurospermum inodorum, 504 h
How it was run: as §1

LOLRI [3] = test: Pre-emergence herbicidal action against LOLRI; format: in vivo, Lolium rigidum; settings: Lolium rigidum, 504 h, 320 g/ha
How it was run: as §1

PHBPU = test: Post-emergence herbicidal action against PHBPU; format: in vivo, Pharbitis purpurea; settings: Ipomoea purpurea, 504 h
How it was run: (§2)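 Visual % rating (0% = as untreated, 100% = dead) ~3 wk after spraying one-leaf-stage plants grown in sandy loam; WP/EC in water at 600–800 l/ha, 0.2% wetting agent.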

ABUTH [4] = test: Pre-emergence herbicidal action against ABUTH; format: in vivo, Abutilon theophrasti; settings: Abutilon theophrasti, 504 h
How it was run: as §1

STEME [5] = test: Pre-emergence herbicidal action against STEME; format: in vivo, Stellaria media; settings: Stellaria media, 504 h
How it was run: as §1

AMARE [6] = test: Pre-emergence herbicidal action against AMARE; format: in vivo, Amaranthus retroflexus; settings: Amaranthus retroflexus, 504 h, 100% = plants have died, 0% = like control plants
How it was run: as §1

VERPE [7] = test: Post-emergence herbicidal action against VERPE; format: in vivo, Veronica persica; settings: Veronica persica, 504 h, 80 g/ha
How it was run: as §2

POLCO [8] = test: Post-emergence herbicidal action against POLCO; format: in vivo, Polygonum convolvulus; settings: Fallopia convolvulus, 504 h, dosage 80 g/ha
How it was run: as §2

ALOMY = test: Pre-emergence herbicidal action against ALOMY; format: in vivo, Alopecurus myosuroides; settings: Alopecurus myosuroides, 504 h, pre-emergence
How it was run: as §1

HORMU [9] = test: Post-emergence herbicidal action against HORMU; format: in vivo, Hordeum murinum; settings: Hordeum murinum, 504 h
How it was run: as §2

ABUTH [10] = test: Post-emergence herbicidal action against ABUTH; format: in vivo, Abutilon theophrasti; settings: Abutilon theophrasti, 504 h, visual assessment about 3 weeks after treatment vs untreated controls
How it was run: as §2

VIOTR [11] = test: Post-emergence herbicidal action against VIOTR; format: in vivo, Viola tricolor; settings: Viola tricolor, 504 h
How it was run: as §2

SETVI [12] = test: Post-emergence herbicidal action against SETVI; format: in vivo, Setaria viridis; settings: Setaria viridis, 504 h
How it was run: as §2

LOLRI [13] = test: Post-emergence herbicidal action against LOLRI; format: in vivo, Lolium rigidum; settings: Lolium rigidum, 504 h, dosage 80 g/ha
How it was run: as §2

STEME [14] = test: Post-emergence herbicidal action against STEME; format: in vivo, Stellaria media; settings: Stellaria media, 504 h
How it was run: as §2

POLCO [15] = test: Pre-emergence herbicidal action against POLCO; format: in vivo, Polygonum convolvulus; settings: Fallopia convolvulus, 504 h, dosage 320 g/ha
How it was run: as §1

SETVI [16] = test: Pre-emergence herbicidal action against SETVI; format: in vivo, Setaria viridis; settings: Setaria viridis, 504 h
How it was run: as §1

HORMU [17] = test: Pre-emergence herbicidal action against HORMU; format: in vivo, Hordeum murinum; settings: Hordeum murinum, 504 h, pre-emergence
How it was run: as §1

AMARE [18] = test: Post-emergence herbicidal action against AMARE; format: in vivo, Amaranthus retroflexus; settings: Amaranthus retroflexus, 504 h, visual assessment about 3 weeks after treatment, 100% = plants have died, 0% = like control plants
How it was run: as §2

[19] = 320 g/ha, scored visually after 3 weeks, 100% = plants have died, 0% = like control plants
[20] = 80 g/ha, scored visually after 3 weeks vs untreated controls (100% = plants have died, 0% = like control plants)

`CNC(=O)c1c(C(F)(F)F)ccc(C(=O)Nc2nnc(C)o2)c1Cl` [Example 6-116] gave a pest or weed control at 80 g/ha (AVEFA; 80 g/ha) of 100%, a pest or weed control at 320 g/ha (AVEFA; [19]) of 100% and a pest or weed control at 80 g/ha (ECHCG; 80 g/ha) of 100%. It also gave a pest or weed control at 320 g/ha (ECHCG; 320 g/ha) of 100%, a pest or weed control at 320 g/ha (VERPE [1]) of 80% and a pest or weed control at 80 g/ha (VIOTR [2]; dosage 80 g/ha) of 100%. The pest or weed control at 320 g/ha (VIOTR [2]; dosage 320 g/ha) was 100%, the pest or weed control at 20 g/ha (MATIN; dosage 20 g/ha) was 90% and the pest or weed control at 80 g/ha (MATIN; dosage 80 g/ha) was 90%. It also gave a pest or weed control at 320 g/ha (MATIN; dosage 320 g/ha) of 100%, a pest or weed control at 320 g/ha (LOLRI [3]) of 100% and a pest or weed control at 5 g/ha (PHBPU; dosage 5 g/ha) of 80%. The pest or weed control at 20 g/ha (PHBPU; dosage 20 g/ha) was 80%, the pest or weed control at 80 g/ha (PHBPU; dosage 80 g/ha) was 90% and the pest or weed control at 80 g/ha (ABUTH [4]; [20]) was 100%. The pest or weed control at 320 g/ha (ABUTH [4]; Dosage: 320 g/ha, scored visually after 3 weeks, 100% = plants have died, 0% = like control plants) was 100%, the pest or weed control at 20 g/ha (ABUTH [4]; dosage 20 g/ha, scored visually after 3 weeks vs untreated controls, 100% = plants have died, 0% = like control plants, read-out: Pre-emergence action against ABUTH (herbicidal activity in percent)) was 100% and the pest or weed control at 20 g/ha (STEME [5]; dosage 20 g/ha) was 90%. It also gave a pest or weed control at 80 g/ha (STEME [5]; dosage 80 g/ha) of 100%, a pest or weed control at 320 g/ha (STEME [5]; dosage 320 g/ha) of 100% and a pest or weed control at 20 g/ha (AMARE [6]; 20 g/ha, scored visually after 3 weeks vs untreated controls) of 100%. For the same molecule, the pest or weed control at 80 g/ha (AMARE [6]; 80 g/ha, scored visually after 3 weeks vs untreated controls) was 100%, the pest or weed control at 320 g/ha (AMARE [6]; 320 g/ha, scored visually after 3 weeks) was 100% and the pest or weed control at 80 g/ha (VERPE [7]) was 90%. The pest or weed control at 80 g/ha (POLCO [8]) was 80%, the pest or weed control at 80 g/ha (ALOMY; [20]) was 100% and the pest or weed control at 320 g/ha (ALOMY; [19]) was 100%. For the same molecule, the pest or weed control at 20 g/ha (HORMU [9]; dosage 20 g/ha) was 90%, the pest or weed control at 80 g/ha (HORMU [9]; dosage 80 g/ha) was 100% and the pest or weed control at 5 g/ha (ABUTH [10]; dosage 5 g/ha) was 90%. It also gave a pest or weed control at 20 g/ha (ABUTH [10]; dosage 20 g/ha) of 100%, a pest or weed control at 80 g/ha (ABUTH [10]; dosage 80 g/ha) of 100% and a pest or weed control at 20 g/ha (VIOTR [11]; 20 g/ha) of 80%. The pest or weed control at 80 g/ha (VIOTR [11]; 80 g/ha) was 100%, the pest or weed control at 5 g/ha (SETVI [12]; dosage 5 g/ha) was 100% and the pest or weed control at 20 g/ha (SETVI [12]; dosage 20 g/ha) was 100%. It also gave a pest or weed control at 80 g/ha (SETVI [12]; dosage 80 g/ha) of 100%, a pest or weed control at 80 g/ha (LOLRI [13]) of 90% and a pest or weed control at 20 g/ha (STEME [14]; 20 g/ha) of 100%. For the same molecule, the pest or weed control at 80 g/ha (STEME [14]; 80 g/ha) was 100%, the pest or weed control at 5 g/ha (STEME [14]; dosage 5 g/ha) was 90% and the pest or weed control at 320 g/ha (POLCO [15]) was 90%. For the same molecule, the pest or weed control at 80 g/ha (SETVI [16]; dosage 80 g/ha) was 100%, the pest or weed control at 320 g/ha (SETVI [16]; dosage 320 g/ha) was 100% and the pest or weed control at 80 g/ha (HORMU [17]; 80 g/ha) was 90%. For the same molecule, the pest or weed control at 320 g/ha (HORMU [17]; 320 g/ha) was 100%, the pest or weed control at 20 g/ha (AMARE [18]; 20 g/ha) was 100% and the pest or weed control at 80 g/ha (AMARE [18]; 80 g/ha) was 100%.

From patent publication US12655116B2, “Substituted isophthalic acid diamides” (Bayer Aktiengesellschaft, priority 2020, dated 2026)
